# Source: patent publication US11596639B2, “Substituted indole Mcl-1 inhibitors” (Vanderbilt University, priority 2016, dated 2023)
# Experiments:
# Mcl-1 = Mcl-1 (Homo sapiens (Human), UniProt Q07820); experiment: TR-FRET binding assay, FITC-Bak peptide and MBP-tagged Mcl-1; conditions: read-out: Ki for Inhibition of Mcl-1 by TR-FRET assay
# Experimental: Compounds are diluted in DMSO in a 16-point, semilog serial dilution scheme. […] The plate was mixed and incubated for 3 hours at room temperature. […] TR-FRET signal is plotted and IC50 and Ki values are calculated in the same manner as the fluorescence polarization anisotropy based competition assays.
# [1] = test system: H929 human cancer cell lines; experiment: Cellular viability / proliferation (Cell TiterGlo, 72 h); assay type: cell-based; conditions: Homo sapiens, NCI-H929, 72 h, read-out: GI50 on cellular proliferation of H929 human cancer cell lines, H929 cells, 72 h, Cell TiterGlo, 10% FBS
# Summary of the method: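 Plating is at 1,000 cells/well in 10% FBS medium; after 24 h, compound is added as a 2-fold series starting at 50 μM with under 1% DMSO.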
# Chain of Mcl-1 (Q07820 172-327): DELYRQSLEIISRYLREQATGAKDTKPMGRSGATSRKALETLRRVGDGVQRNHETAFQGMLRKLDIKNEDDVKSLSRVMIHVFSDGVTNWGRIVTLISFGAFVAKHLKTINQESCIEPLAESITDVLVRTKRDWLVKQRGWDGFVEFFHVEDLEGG
SMILES,Ki (Mcl-1),GI50 [1]
"Cc1ccnc(Cn2c(C(=O)O)cc3cc(OCCN(C)C)cc(N4C[C@@H](C)n5c(c(CCCOc6cc(C)c(Cl)c(C)c6)c6ccc(Cl)c(-c7c(C)ncnc7C)c65)C4=O)c32)c1 [Example 584, (R)-7-(7-chloro-10-(3-(4-chloro-3,5-dimethylphenoxy)propyl)-6-(4,6-dimethylpyrimidin-5-yl)-4-methyl-1-oxo-3,4-dihydropyrazino[1,2-a]indol-2(1H)-yl)-5-(2-(dimethylamino)ethoxy)-1-((4-methylpyridin-2-yl)methyl)-1H-indole-2-carboxylic acid]",< 0.2 nM,1000 nM
"Cc1cc(N2C[C@@H](C)n3c(c(CCCOc4cc(C)c(Cl)c(C)c4)c4ccc(Cl)c(-c5c(C)n[nH]c5C)c43)C2=O)c2c(c1)cc(C(=O)O)n2Cc1ccccn1 [Example 719, (R)-7-(7-chloro-10-(3-(4-chloro-3,5-dimethylphenoxy)propyl)-6-(3,5-dimethyl-1H-pyrazol-4-yl)-4-methyl-1-oxo-3,4-dihydropyrazino[1,2-a]indol-2(1H)-yl)-5-methyl-1-(pyridin-2-ylmethyl)-1H-indole-2-carboxylic acid]",< 0.2 nM,640 nM
"COCCn1cnc(-c2ccc3c(c2)c(N2C[C@@H](C)n4c(c(CCCOc5cc(C)c(Cl)c(C)c5)c5ccc(Cl)c(-c6c(C)nc(CN7CCN(C)C(=O)C7)nc6C)c54)C2=O)cn3CCN2CCOCC2)n1 [Example 722, (R)-7-Chloro-10-(3-(4-chloro-3,5-dimethylphenoxy)propyl)-6-(4,6-dimethyl-2-((4-methyl-3-oxopiperazin-1-yl)methyl)pyrimidin-5-yl)-2-(5-(1-(2-methoxyethyl)-1H-1,2,4-triazol-3-yl)-1-(2-morpholinoethyl)-1H-indol-3-yl)-4-methyl-3,4-dihydropyrazino[1,2-a]indol-1(2H)-one]",3.1 nM,< 200 nM
"COc1ccnc(Cn2c(C(=O)O)cc3c(OC)ccc(N4C[C@@H](C)n5c(c(CCCOc6cc(C)c(Cl)c(C)c6)c6ccc(Cl)c(-c7c(C)ncnc7C)c65)C4=O)c32)c1 [Example 476, (R)-7-(7-Chloro-10-(3-(4-chloro-3,5-dimethylphenoxy)propyl)-6-(4,6-dimethylpyrimidin-5-yl)-4-methyl-1-oxo-3,4-dihydropyrazino[1,2-a]indol-2(1H)-yl)-4-methoxy-1-((4-methoxypyridin-2-yl)methyl)-1H-indole-2-carboxylic acid]",< 0.2 nM,< 200 nM
"Cc1cc(N2C[C@@H](C)n3c(c(CCCOc4cc(C)c(Cl)c(C)c4)c4ccc(Cl)c(-c5c(C)nn(C)c5C)c43)C2=O)c2c(c1)cc(C(=O)O)n2CC(=O)N1CCOCC1 [Example 598, (R)-7-(7-chloro-10-(3-(4-chloro-3,5-dimethylphenoxy)propyl)-4-methyl-1-oxo-6-(1,3,5-trimethyl-1H-pyrazol-4-yl)-3,4-dihydropyrazino[1,2-a]indol-2(1H)-yl)-5-methyl-1-(2-morpholino-2-oxoethyl)-1H-indole-2-carboxylic acid]",< 0.2 nM,1900 nM
"Cc1cc(OCCCc2c3n(c4c(-c5c(C)nn(C)c5C)c(Cl)ccc24)[C@H](C)CN(c2cc(Oc4ccccn4)cc4cc(C(=O)O)n(C)c24)C3=O)cc(C)c1Cl [Example 522, (R)-7-(7-Chloro-10-(3-(4-chloro-3,5-dimethylphenoxy)propyl)-4-methyl-1-oxo-6-(1,3,5-trimethyl-1H-pyrazol-4-yl)-3,4-dihydropyrazino[1,2-a]indol-2(1H)-yl)-1-methyl-5-(pyridin-2-yloxy)-1H-indole-2-carboxylic acid]",0.32 nM,750 nM
"COc1cc(N2C[C@@H](C)n3c(c(CCCOc4cc(C)c(Cl)c(C)c4)c4ccc(Cl)c(-c5c(C)nn(C)c5C)c43)C2=O)c2c(c1)cc(C(=O)O)n2Cc1cccc(C)n1 [Example 536, (R)-7-(7-Chloro-10-(3-(4-chloro-3,5-dimethylphenoxy)propyl)-4-methyl-1-oxo-6-(1,3,5-trimethyl-1H-pyrazol-4-yl)-3,4-dihydropyrazino[1,2-a]indol-2(1H)-yl)-5-methoxy-1-((6-methylpyridin-2-yl)methyl)-1H-indole-2-carboxylic acid]",< 0.2 nM,< 200 nM
"Cc1cc(OCCCc2c3n(c4c(-c5c(C)nn(C)c5C)c(Cl)ccc24)[C@H](C)CN(c2cc(OCCOC(C)C)cc4c(C(=O)O)cn(Cc5ccccn5)c24)C3=O)cc(C)c1Cl [Example 606, (R)-7-(7-chloro-10-(3-(4-chloro-3,5-dimethylphenoxy)propyl)-4-methyl-1-oxo-6-(1,3,5-trimethyl-1H-pyrazol-4-yl)-3,4-dihydropyrazino[1,2-a]indol-2(1H)-yl)-5-(2-isopropoxyethoxy)-1-(pyridin-2-ylmethyl)-1H-indole-3-carboxylic acid]",0.47 nM,600 nM
"Cc1cc(OCCCc2c3n(c4c(-c5c(C)nn(C)c5C)c(Cl)ccc24)[C@H](C)CN(c2cn(C)c4ccc(-n5ccnn5)nc24)C3=O)cc(C)c1Cl [Example 659, (R)-7-Chloro-10-(3-(4-chloro-3,5-dimethylphenoxy)propyl)-4-methyl-2-(1-methyl-5-(1H-1,2,3-triazol-1-yl)-1H-pyrrolo[3,2-b]pyridin-3-yl)-6-(1,3,5-trimethyl-1H-pyrazol-4-yl)-3,4-dihydropyrazino[1,2-a]indol-1(2H)-one]",0.96 nM,930 nM
"Cc1cc(OCCCc2c3n(c4c(-c5c(C)ncnc5C)c(Cl)ccc24)[C@H](C)CN(c2cn(C)c4ncc(C(=O)O)cc24)C3=O)cc(C)c1Cl [Example 636, (R)-3-(7-chloro-10-(3-(4-chloro-3,5-dimethylphenoxy)propyl)-6-(4,6-dimethylpyrimidin-5-yl)-4-methyl-1-oxo-3,4-dihydropyrazino[1,2-a]indol-2(1H)-yl)-1-methyl-1H-pyrrolo[2,3-b]pyridine-5-carboxylic acid]",0.5 nM,980 nM
"COCCOC1CCN(Cc2cc(N3C[C@@H](C)n4c(c(CCCOc5cc(C)c(Cl)c(C)c5)c5ccc(Cl)c(-c6c(C)nn(C)c6C)c54)C3=O)c3c(c2)cc(C(=O)O)n3C)CC1 [Example 650, (R)-7-(7-chloro-10-(3-(4-chloro-3,5-dimethylphenoxy)propyl)-4-methyl-1-oxo-6-(1,3,5-trimethyl-1H-pyrazol-4-yl)-3,4-dihydropyrazino[1,2-a]indol-2(1H)-yl)-5-((4-(2-methoxyethoxy)piperidin-1-yl)methyl)-1-methyl-1H-indole-2-carboxylic acid]",< 0.2 nM,210 nM
"Cc1cc(N2C[C@@H](C)n3c(c(CCCOc4cc(C)c(Cl)c(C)c4)c4ccc(Cl)c(-c5c(C)nn(C)c5C)c43)C2=O)c2c(c1)cc(C(=O)O)n2Cc1cccc(N2CCOCC2)n1 [Example 499, (R)-7-(7-chloro-10-(3-(4-chloro-3,5-dimethylphenoxy)propyl)-4-methyl-1-oxo-6-(1,3,5-trimethyl-1H-pyrazol-4-yl)-3,4-dihydropyrazino[1,2-a]indol-2(1H)-yl)-5-methyl-1-((6-morpholinopyridin-2-yl)methyl)-1H-indole-2-carboxylic acid]",0.21 nM,740 nM
